According to ChEMBL document CHEMBL1201862, “PubChem BioAssay data set” (2004):
Active and inactive are the calls of the source.

Experiments:
[1] = target: Aryl hydrocarbon receptor (Homo sapiens, UniProt P35869); details: Potency;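 note: confirmatory quantitative high-throughput screen measuring activation of the AhR signaling pathway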
[2] = target: DNA repair and recombination protein RAD54-like (Homo sapiens, UniProt Q92698); experiment: RAD54 Holliday junction migration blockers – biochemical, fluorescence, cherry-picked samples, dose series, confirmation (AID 651657); assay type: functional
Chain of DNA repair and recombination protein RAD54-like (Q92698 whole entry): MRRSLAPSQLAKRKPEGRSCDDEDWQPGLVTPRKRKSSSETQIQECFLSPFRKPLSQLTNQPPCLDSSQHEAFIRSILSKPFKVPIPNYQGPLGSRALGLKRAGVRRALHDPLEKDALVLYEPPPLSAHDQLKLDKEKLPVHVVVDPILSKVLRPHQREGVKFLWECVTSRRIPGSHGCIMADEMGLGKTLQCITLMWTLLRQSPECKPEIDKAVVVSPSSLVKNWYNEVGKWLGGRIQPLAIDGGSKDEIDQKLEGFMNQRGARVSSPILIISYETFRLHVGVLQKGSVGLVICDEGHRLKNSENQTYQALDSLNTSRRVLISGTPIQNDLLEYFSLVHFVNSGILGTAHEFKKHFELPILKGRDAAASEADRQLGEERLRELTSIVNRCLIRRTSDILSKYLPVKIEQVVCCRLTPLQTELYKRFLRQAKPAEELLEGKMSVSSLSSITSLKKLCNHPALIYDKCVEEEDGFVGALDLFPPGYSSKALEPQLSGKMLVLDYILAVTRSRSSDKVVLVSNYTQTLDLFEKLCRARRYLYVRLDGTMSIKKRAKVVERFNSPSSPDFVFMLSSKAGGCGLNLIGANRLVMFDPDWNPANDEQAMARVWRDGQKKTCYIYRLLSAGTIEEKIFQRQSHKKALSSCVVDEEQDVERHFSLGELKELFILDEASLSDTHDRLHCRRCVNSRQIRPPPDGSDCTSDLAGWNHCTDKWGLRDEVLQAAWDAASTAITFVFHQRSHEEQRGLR

[3] = target: T1, DNA repair protein RAD52 homolog (Homo sapiens, UniProt P43351); assay type: functional, biochemical
T1 sequence (P43351 whole entry): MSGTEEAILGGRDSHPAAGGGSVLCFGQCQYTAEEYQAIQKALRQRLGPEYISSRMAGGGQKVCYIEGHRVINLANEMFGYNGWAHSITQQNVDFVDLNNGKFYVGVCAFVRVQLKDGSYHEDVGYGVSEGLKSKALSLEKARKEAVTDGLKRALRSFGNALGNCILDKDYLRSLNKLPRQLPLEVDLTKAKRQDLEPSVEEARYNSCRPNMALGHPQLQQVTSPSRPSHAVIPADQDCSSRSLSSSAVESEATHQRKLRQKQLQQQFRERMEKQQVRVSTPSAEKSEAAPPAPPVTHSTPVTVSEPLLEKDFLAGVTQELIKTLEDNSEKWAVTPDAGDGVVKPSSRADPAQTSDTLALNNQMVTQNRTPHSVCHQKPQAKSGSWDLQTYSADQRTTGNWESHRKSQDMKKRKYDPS

[4] = target: Broad substrate specificity ATP-binding cassette transporter ABCG2 (Homo sapiens, UniProt Q9UNQ0); experiment: blockers of JC-1 export by ABCG2 – Ig-MXP3 cells, flow cytometry, dose response (AID 1690); assay type: functional
Chain of Broad substrate specificity ATP-binding cassette transporter ABCG2 (Q9UNQ0 whole entry): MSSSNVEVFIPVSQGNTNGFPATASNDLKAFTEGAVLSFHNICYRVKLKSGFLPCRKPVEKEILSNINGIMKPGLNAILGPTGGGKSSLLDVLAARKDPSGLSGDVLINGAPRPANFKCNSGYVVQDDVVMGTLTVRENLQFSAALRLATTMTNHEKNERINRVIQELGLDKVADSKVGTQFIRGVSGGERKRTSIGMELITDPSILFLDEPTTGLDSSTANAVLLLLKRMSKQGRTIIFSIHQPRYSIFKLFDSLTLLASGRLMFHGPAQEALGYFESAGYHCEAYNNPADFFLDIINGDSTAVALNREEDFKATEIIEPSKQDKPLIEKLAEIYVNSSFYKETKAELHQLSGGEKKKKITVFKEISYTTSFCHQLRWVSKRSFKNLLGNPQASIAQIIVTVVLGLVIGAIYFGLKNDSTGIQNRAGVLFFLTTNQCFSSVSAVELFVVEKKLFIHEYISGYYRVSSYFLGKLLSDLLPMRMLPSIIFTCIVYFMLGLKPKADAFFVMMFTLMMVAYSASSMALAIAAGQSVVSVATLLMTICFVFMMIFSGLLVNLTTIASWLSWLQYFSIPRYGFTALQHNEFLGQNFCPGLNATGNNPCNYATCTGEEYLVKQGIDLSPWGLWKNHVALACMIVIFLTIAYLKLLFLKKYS

Vero = experiment: viability loss in Vero cells – cell-based, plate reader, cherry-pick samples, cytotoxicity control, dose response (AID 687020); assay type: functional; details: Chlorocebus sabaeus
[5] = viability loss in HEK293T cells – cell-based, cherry-picks, cytotoxicity control for HIV Vif inhibitor project, dose response (AID 652208); assay type: functional
[6] = luciferase reporter signal suppression in cells – H4 neuroglioma cells, luminescence, dose response (AID 1990); assay type: functional, cell-based
[7] = tested on: Streptococcus sp. 'group A'; experiment: Streptococcus pyogenes SK(-)GAS viability under kanamycin – luminescence, BacTiterGlo, confirmation, counter-screen for streptokinase expression inhibitor project, dose response (AID 1900); assay type: functional, organism-based
[8] = Luminescence Cell-Based Dose Response HTS to Identify Inhibitors of 5'UTR Stem-Loop Driven Prion Protein mRNA Translation in H4 Neuroglioblastoma Cells. [Related pubchem assays: 1827 (Project Summary), 1813 (Primary HTS)]; assay type: functional
[9] = alpha-synuclein stem-loop luciferase translation blockers – H4 neuroglioma cells, luminescence, confirmation (AID 1988); assay type: functional, cell-based
Streptokinase A = target: T2, Streptokinase A (Streptococcus pyogenes serotype M1, UniProt P10520); experiment: viability-normalized secreted streptokinase activity reduction – plasminogen activation absorbance, OD405, dose response (AID 1914); assay type: functional, Streptococcus pyogenes M1 GAS;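 note: secreted streptokinase activity via plasminogen activation per viability signal from cell pellet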
T2 sequence (P10520 whole entry): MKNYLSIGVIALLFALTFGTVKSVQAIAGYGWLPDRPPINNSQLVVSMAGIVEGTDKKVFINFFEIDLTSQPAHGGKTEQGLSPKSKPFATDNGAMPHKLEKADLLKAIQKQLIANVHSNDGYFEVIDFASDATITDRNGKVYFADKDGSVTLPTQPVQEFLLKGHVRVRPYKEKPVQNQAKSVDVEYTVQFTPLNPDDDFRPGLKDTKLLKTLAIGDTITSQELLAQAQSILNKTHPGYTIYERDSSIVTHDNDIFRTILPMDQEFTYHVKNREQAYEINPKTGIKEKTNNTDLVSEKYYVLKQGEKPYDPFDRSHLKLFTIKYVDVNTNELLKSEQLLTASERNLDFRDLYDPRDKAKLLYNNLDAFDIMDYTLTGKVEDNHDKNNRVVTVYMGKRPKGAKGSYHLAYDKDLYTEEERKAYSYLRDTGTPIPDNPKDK

Streptococcus = experiment: GAS UMAA2166 growth inhibition – luminescence, BacTiterGlo, counter-screen for streptokinase expression inhibitor project, dose response (AID 1915); assay type: functional, organism-based;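 note: potency for reduction of bacterial viability or growth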
[10] = target: T3, Ubiquitin-conjugating enzyme E2 N (Homo sapiens, UniProt P61088); assay type: functional;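 note: Dose-response confirmation in a TR-FRET assay detecting UBC13-driven polyubiquitin chain formation, inhibition measured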
T3 sequence (P61088 whole entry): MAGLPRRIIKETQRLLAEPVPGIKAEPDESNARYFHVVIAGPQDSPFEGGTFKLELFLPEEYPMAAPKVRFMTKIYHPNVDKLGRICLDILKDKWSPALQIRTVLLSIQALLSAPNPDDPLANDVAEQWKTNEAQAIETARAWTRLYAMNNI

INS1 = experiment: INS-1E survival protection against cytokine death – cell-based, luminescence, retest, dose response (AID 449756); assay type: functional; details: Rattus norvegicus;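 note: cell death triggered by IL-1 beta plus TNF-alpha plus IFN-gamma mixture; protective hits raise ATP signal compared with cytokine alone wells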
Melanocortin receptor 4 = Melanocortin receptor 4 (Homo sapiens, UniProt P32245); assay type: functional, cell-based;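 note: Cell-based assay with luminescence read-out, confirmatory dose-response testing for agonist activity of biased ligands at MC4R; human U2OS cells with tagged receptor and beta-arrestin; potency of agonists that increase receptor coupling to beta-arrestin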
Chain of Melanocortin receptor 4 (P32245 whole entry): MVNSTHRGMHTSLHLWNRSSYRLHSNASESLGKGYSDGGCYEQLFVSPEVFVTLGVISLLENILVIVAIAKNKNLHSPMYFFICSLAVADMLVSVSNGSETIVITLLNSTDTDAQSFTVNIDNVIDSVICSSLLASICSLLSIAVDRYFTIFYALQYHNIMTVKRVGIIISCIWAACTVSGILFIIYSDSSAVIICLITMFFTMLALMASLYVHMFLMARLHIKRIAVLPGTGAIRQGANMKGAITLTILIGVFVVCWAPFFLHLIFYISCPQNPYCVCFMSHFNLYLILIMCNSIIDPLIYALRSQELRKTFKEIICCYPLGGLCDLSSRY

[11] = activation of miR-122 Renilla sensor silencing – cell-based, Huh7 psiCHECK-miR122, Renilla luciferase, cherry-picked, dose response (AID 651956); assay type: functional;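 note: huh7 hepatoma cells stably carrying a psiCHECK-2 miR-122 sensor plasmid; renilla luciferase signal reporting endogenous miR-122 activity after 48 h compound exposure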
[12] = target: Long-chain-fatty-acid--AMP ligase FadD28 (Mycobacterium tuberculosis, UniProt P9WQ59); experiment: Fluorescence polarization aasay to screen for inhibitors that compete for the binding of FadD28 to a bisubstrate Measured in Biochemical System Using Plate Reader - 2147-01_Inhibitor_Dose_CherryPick_Activity.; assay type: functional, Mycobacterium tuberculosis H37Rv
Chain of Long-chain-fatty-acid--AMP ligase FadD28 (P9WQ59 whole entry): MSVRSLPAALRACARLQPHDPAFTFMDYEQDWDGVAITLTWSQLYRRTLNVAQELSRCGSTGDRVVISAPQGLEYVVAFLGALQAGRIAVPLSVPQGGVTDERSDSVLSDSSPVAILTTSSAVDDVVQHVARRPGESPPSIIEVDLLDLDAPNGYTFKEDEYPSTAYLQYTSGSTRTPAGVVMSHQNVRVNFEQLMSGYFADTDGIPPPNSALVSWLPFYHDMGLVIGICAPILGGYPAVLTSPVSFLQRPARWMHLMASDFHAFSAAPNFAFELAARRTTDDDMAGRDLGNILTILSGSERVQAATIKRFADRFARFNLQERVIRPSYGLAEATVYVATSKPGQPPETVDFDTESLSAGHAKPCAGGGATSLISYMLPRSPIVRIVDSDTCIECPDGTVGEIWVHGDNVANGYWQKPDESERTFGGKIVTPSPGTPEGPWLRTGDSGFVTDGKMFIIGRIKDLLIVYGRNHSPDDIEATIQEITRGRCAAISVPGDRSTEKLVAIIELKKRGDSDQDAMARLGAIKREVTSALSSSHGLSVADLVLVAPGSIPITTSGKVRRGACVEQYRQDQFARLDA

Interleukin-8 [13] = target: T4, Interleukin-8 (Homo sapiens, UniProt P10145); experiment: Dose Response confirmation of uHTS small molecule hits for cystic fibrosis induced NFkb Inhibitors in a TNFa-induced IL8 counterscreen.; assay type: functional; details: read-out: IC50_Mean
T4 sequence (P10145 whole entry): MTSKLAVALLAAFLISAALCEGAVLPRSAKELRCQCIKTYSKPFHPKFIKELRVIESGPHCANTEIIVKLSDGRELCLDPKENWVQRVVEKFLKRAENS

Interleukin-8 [14] = target: T4, Interleukin-8; experiment: Dose Response confirmation of uHTS small molecule hits for cystic fibrosis induced NFkb Inhibitors in a PAF-induced IL8 counterscreen.; assay type: functional; details: read-out: IC50_Mean
Paired box protein Pax-8 = Paired box protein Pax-8 (Homo sapiens, UniProt Q06710); experiment: PAX8 transcriptional activity inhibition in RMG-I – RMG-I cells, luciferase, cherry-pick, dose response (AID 687027); assay type: functional, cell-based;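 note: luciferase reporter driven by Pax8 target thyroperoxidase promoter measured by SteadyGlo luminescence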
Chain of Paired box protein Pax-8 (Q06710 whole entry): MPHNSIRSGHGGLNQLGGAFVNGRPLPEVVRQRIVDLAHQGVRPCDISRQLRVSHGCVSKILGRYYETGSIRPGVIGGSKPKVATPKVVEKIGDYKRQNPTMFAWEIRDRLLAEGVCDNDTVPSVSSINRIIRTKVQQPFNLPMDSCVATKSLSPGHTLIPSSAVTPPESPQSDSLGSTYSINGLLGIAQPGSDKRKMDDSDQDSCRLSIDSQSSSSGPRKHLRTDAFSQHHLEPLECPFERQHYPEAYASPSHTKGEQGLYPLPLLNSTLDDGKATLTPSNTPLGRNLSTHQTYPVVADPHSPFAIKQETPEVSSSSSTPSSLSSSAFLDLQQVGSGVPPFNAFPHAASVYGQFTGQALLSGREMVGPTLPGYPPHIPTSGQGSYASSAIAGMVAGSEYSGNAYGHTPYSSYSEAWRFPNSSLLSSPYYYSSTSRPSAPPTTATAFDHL

[15] = general mammalian cell viability loss – inhibitor set, cherry-pick, set 2, cytotoxicity control for miR-122 modulator project, dose response (AID 720697); assay type: functional, cell-based
[16] = general mammalian cell viability loss – activator set, cherry-pick, cytotoxicity control for miR-122 modulator project, dose response (AID 720690); assay type: functional, cell-based;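 note: HEK293T human cells scored for general mammalian cytotoxicity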
[17] = general cell-killing toxicity readout – plate reader, dry powder samples, cytotoxicity control for PAX8 inhibitor project, dose response (AID 743021); assay type: functional, cell-based
[18] = target: Photoreceptor-specific nuclear receptor (Homo sapiens, UniProt Q9Y5X4); assay type: functional, cell-based;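 note: CHO-S cells with Gal4-NCOR and VP16-NR2E3 two-hybrid luciferase reporter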
Chain of Photoreceptor-specific nuclear receptor (Q9Y5X4 whole entry, the tested form may be a part): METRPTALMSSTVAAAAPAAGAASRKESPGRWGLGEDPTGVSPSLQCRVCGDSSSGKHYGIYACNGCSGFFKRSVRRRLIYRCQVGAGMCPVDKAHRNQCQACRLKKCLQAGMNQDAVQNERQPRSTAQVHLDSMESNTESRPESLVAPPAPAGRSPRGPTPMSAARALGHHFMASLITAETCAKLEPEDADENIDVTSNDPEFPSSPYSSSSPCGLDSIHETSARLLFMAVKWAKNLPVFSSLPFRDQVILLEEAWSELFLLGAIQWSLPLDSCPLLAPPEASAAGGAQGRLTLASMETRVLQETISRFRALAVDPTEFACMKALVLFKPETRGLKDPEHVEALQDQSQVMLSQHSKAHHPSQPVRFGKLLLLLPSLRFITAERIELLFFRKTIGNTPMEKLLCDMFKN

Chain of Aryl hydrocarbon receptor (P35869 whole entry): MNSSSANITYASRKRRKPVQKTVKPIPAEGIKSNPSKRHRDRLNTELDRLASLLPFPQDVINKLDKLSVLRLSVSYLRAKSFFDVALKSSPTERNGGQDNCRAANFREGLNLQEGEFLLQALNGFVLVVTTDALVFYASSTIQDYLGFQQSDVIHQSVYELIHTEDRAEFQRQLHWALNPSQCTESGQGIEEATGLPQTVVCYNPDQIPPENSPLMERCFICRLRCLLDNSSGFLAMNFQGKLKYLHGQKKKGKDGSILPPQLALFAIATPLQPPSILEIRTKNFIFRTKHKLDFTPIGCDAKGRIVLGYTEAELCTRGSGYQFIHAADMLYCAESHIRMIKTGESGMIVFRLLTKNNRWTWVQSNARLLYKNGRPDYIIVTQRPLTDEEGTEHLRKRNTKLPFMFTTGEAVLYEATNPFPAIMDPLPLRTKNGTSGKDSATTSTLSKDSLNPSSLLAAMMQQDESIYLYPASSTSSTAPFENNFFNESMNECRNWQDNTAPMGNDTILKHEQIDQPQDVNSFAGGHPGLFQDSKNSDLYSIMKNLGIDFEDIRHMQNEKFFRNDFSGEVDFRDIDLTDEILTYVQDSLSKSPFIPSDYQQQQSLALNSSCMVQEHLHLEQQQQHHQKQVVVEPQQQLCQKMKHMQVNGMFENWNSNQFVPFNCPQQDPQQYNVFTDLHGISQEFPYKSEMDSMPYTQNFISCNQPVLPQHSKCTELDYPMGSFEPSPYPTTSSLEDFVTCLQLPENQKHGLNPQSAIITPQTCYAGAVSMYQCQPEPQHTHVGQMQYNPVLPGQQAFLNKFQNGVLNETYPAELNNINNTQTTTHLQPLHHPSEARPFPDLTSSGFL

## Cc1cc2nc(N)sc2cc1C
[1]
  AC50: 10 µM (inconclusive)

## CCN(CC)CCN=C(S)Nc1ccc2nc(N3CCN(C)CC3)cc(C)c2c1
[2]
  AC50: 17.2 µM (active)
[3]
  AC50: 5.01 µM (active)

## COC(=O)c1ccc(C(C(=O)NC2CCCCC2)N(Cc2ccccc2)C(=O)Cc2cccs2)cc1 (centres undefined)
[4]
  EC50: 4.6 µM (active)

## CCCN(CC(=O)Nc1ccccc1C)C(=O)C1CCN(S(=O)(=O)c2ccc(C)c(C)c2)CC1
Vero
  AC50: 13.2 µM (active)

## NC(c1csc(Nc2ccc(C(=O)c3ccccc3)cc2)n1)C1CCCCC1 (centres undefined)
[5]
  AC50: 26.6 µM (active)

## CCN1CCN(Cc2ccc(NC(=O)c3ccc(C)c(NC(=O)C(=O)c4c[nH]c5ccccc45)c3)cc2C(F)(F)F)CC1
[6]
  EC50: 4.17 µM (inconclusive)
[7]
  EC50: 4.28 µM (active)
[8]
  EC50: 5.83 µM (active)
[9]
  EC50: 7.65 µM (active)
Streptokinase A
  EC50: > 150 µM (not active)
Streptococcus
  EC50: 7.74 µM (active)
[10]
  IC50: > 20 µM (inactive)
INS1
  AC50: 7.69 µM (active)
Melanocortin receptor 4
  EC50: > 89.2 µM (inactive)
[11]
  AC50: 11.3 µM (active)
[12]
  AC50: 12 µM (active)
Interleukin-8 [13]
  IC50: 39.7 µM (inactive)
Interleukin-8 [14]
  IC50: 2.27 µM (active)
Paired box protein Pax-8
  AC50: 12.1 µM (active)
[15]
  AC50: 8.7 µM (active)
[16]
  AC50: 14.1 µM (active)
[17]
  AC50: 68 µM (active)

## O=C(C1CC1)N1CCc2cc(Br)cc(S(=O)(=O)N3CCN(c4ccccn4)CC3)c21
[18]
  IC50: 1.06 µM (active)
